Results on 2 compounds are retold here after publication PMC7402352, “Discovery of Novel Non-Steroidal Cytochrome P450 17A1 Inhibitors as Potential Prostate Cancer Agents” (International Journal of Molecular Sciences, 2020).

What all share (format): biochemical
One series deals with T1, CYP2D6 (Homo sapiens, UniProt P10635).
T1 construct: made in house
The series can be described thus: CYP2D6 dextromethorphan metabolism inhibition assay. As to conditions: for IC50: dextromethorphan metabolism. An excerpt:
(§1) In human drug metabolism, CYP3A4 and CYP2D6 are dominant enzymes and undesired inhibition could potentially alter the pharmacokinetics and reduce the clearance of co-administered drugs. CYP3A4 is particularly important in this respect, with a large and flexible active site able to accommodate many different molecular scaffolds including steroids. […] The most similar steroidogenic human enzyme to CYP17A1 is CYP21A2, which also uses progesterone as a substrate, in this case to form 21-hydroxyprogesterone. Undesired inhibition of this enzyme could adversely impact the biosynthesis of the corticosteroids cortisol and aldosterone which control stress/immune responses and blood pressure, respectively. Abiraterone itself has this liability and is thus co-administered with the synthetic corticosteroid prednisone. […] However, at the same time it might be possible to achieve similar results by altering the nitrogen atom position in the pyridine fragment in compound 1e. Further optimization of 1c is required to eliminate off-target effects on the steroidogenic human CYP21A2 enzyme to prevent disruption of glucocorticoid and mineralocorticoid biosynthesis in vivo. This might be achieved by adding substituents compatible with the CYP17A1 active site topography forming interactions with the bordering Arg239 and/or Asp298 residues, but incompatible with the more spatially constrained CYP21A2 active site, as has been accomplished for abiraterone.
(§2) Selected inhibitors were tested for off-target inhibition of purified recombinant human CYP3A4 nifedipine metabolism and CYP2D6 dextromethorphan metabolism as described with minor modifications. CYP3A4 nifedipine (purchased from Sigma-Aldrich, St. Louis, MO, USA) activity assays were carried out with 200 µM nifedipine for 30 min. The CYP2D6 dextrometorphan (purchased from Sigma-Aldrich, St. Louis, MO, USA) assays were carried out with 100 µM DXM. Inhibition of steroidogenic cytochrome P450 21A2 progesterone 21-hydroxylation was evaluated as reported.
(§3) IC50 curves for compounds inhibiting CYP17A1 progesterone 17-hydroxylation (black circles), […]

In the next series the target is T2, cytochrome P450 21A2 (Homo sapiens, UniProt P08686).
T2 construct: made in house
T2 sequence (P08686 1-495): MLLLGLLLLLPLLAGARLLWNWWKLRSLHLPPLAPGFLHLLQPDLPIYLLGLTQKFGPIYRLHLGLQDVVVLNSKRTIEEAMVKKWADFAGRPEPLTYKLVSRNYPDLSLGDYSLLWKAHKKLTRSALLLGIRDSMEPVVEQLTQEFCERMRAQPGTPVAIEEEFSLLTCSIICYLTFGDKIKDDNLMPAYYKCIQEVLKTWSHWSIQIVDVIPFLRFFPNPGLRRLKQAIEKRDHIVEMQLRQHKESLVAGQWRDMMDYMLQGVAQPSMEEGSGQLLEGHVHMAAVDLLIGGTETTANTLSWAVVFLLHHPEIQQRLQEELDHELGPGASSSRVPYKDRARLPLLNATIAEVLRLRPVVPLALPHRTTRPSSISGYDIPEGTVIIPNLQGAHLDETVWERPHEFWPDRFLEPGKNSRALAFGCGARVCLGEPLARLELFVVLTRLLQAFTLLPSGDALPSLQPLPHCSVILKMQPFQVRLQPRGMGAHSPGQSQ
The series can be described thus: CYP21A2 progesterone 21-hydroxylation inhibition assay. The note with it: for IC50: progesterone 21-hydroxylation.
Description: as §1, §2, §3

A further series has as its target T3, human CYP17A1 (Homo sapiens, UniProt P05093).
T3 construct: made in house
T3 sequence (P05093 24-508 limits assumed): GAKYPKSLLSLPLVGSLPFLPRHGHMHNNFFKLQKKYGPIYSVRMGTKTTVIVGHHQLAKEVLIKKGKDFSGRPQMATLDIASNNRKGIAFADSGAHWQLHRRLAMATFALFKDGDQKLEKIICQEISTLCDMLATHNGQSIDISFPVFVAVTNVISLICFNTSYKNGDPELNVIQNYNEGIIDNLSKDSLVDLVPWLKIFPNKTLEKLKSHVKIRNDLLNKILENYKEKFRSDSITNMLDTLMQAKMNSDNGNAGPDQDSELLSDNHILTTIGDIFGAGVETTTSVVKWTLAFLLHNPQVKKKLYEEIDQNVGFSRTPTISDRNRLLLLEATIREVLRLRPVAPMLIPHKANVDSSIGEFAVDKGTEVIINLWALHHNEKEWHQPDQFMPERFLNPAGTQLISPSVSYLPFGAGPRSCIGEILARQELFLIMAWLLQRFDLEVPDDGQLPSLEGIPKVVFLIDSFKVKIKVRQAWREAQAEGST
Put plainly: Cytochrome P450 17A1 progesterone 17α-hydroxylation inhibition assay. As to conditions: recombinant purified CYP17A1. The method, then: Regardless of their binding affinity, all compounds were tested for their ability to inhibit progesterone 17α-hydroxylation by recombinant purified CYP17A1 (Supplementary Materials S2).
Purified recombinant human CYP17A1 (20 pmol) and human full-length cytochrome P450 reductase (80 pmol) were used to convert progesterone (purchased from Acros Organics, Fair Lawn, NJ, USA) (6 µM) to 17α-hydroxyprogesterone. Test inhibitors were dissolved in DMSO and initially tested in concentrations ranging from 1.3 to 41 µM. In subsequent assays the range of inhibitor concentrations was optimized to best define the IC50 of individual compounds. Reactions were run and the 17α -hydroxyprogesterone product measured by LC-MS as previously published.
IC50 curves for compounds inhibiting CYP17A1 progesterone 17-hydroxylation (black circles),
CYP21A2 progesterone 21-hydroxylation (red diamonds), CYP3A4 nifedipine metabolism
(green squares), and CYP2D6 quinidine metabolism (blue triangles).
(1 picture or pasted object on this page, not shown here)

The target of a further series is T4, human CYP3A4 (Homo sapiens, UniProt P08684).
T4 construct: made in house
The series can be described thus: CYP3A4 nifedipine metabolism inhibition assay. The note with it: concentrations up to 10 µM.
Description: as §1, with “Further optimization of 1c is required to eliminate off-target effects on the steroidogenic human CYP21A2 enzyme to prevent disruption of glucocorticoid and mineralocorticoid biosynthesis in vivo. This might be achieved by adding substituents compatible with the CYP17A1 active site topography forming interactions with the bordering Arg239 and/or Asp298 residues, but incompatible with the more spatially constrained CYP21A2 active site, as has been accomplished for abiraterone.” left out
Selected inhibitors were tested for off-target inhibition of purified recombinant human CYP3A4 nifedipine metabolism and CYP2D6 dextromethorphan metabolism as described with minor modifications. […] Inhibition of steroidogenic cytochrome P450 21A2 progesterone 21-hydroxylation was evaluated as reported. […]

T1 sequence (P10635 whole entry): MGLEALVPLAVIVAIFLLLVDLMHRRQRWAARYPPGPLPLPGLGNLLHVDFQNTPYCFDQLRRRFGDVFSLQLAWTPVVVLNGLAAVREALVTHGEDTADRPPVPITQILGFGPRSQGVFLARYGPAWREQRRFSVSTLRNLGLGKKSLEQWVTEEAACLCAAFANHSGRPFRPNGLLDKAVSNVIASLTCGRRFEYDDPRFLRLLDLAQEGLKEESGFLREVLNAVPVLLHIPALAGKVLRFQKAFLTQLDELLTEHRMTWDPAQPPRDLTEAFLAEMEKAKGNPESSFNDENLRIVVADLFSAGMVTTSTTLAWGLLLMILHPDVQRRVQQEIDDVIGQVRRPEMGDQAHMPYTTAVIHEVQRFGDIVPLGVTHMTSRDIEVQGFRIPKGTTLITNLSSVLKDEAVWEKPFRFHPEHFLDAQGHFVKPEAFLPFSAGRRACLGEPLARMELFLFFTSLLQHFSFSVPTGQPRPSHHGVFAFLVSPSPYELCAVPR
T4 sequence (P08684 whole entry): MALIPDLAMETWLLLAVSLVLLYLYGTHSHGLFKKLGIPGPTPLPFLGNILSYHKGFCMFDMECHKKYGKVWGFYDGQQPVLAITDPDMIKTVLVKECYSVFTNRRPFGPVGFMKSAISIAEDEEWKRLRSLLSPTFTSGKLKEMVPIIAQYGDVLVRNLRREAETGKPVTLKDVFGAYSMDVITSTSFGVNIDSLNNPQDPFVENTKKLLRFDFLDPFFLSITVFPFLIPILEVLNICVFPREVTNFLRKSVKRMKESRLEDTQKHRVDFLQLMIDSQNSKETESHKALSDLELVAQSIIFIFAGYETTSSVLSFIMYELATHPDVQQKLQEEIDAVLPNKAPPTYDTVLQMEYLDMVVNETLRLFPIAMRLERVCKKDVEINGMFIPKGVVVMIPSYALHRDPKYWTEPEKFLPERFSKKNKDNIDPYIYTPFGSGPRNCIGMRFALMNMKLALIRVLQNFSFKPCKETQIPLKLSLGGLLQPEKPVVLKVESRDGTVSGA

A word on the IC50: it is the concentration at which inhibition is half-maximal. On to `c1cncc(Nc2ccc(-n3cnc4ccccc43)cc2)c1` [Compound 1c], for which the 50% inhibitory concentration (IC50) was greater than 10000 nM against CYP2D6, 1500 ± 670 nM against cytochrome P450 21A2, 830 ± 190 nM at human CYP17A1 and greater than 10000 nM at human CYP3A4. At cytochrome P450 21A2 (ratio of IC50 values), the “Selectivity for CYP17A1 over CYP21A2 inhibition” value is “two-fold”.
Regarding `c1ccc2c(c1)ccn2-c1ccc(Nc2ccncc2)cc1` [Compound 1e], the IC50 against CYP2D6 is 2500 ± 600 nM; against cytochrome P450 21A2, 190 ± 30 nM; at human CYP17A1 it was 560 ± 100 nM; on human CYP3A4 it was greater than 10000 nM. The “Fold weaker inhibition of CYP2D6 than of CYP17A1” value at CYP2D6 (ratio of IC50 values) is 4.5 fold.
